# Measurements: US20060110456A1, “Method for biocidal and/or biostatic treatment and compositions therefor” (NATIONAL UNIVERSITY OF SINGAPORE, priority 2004, published 2006)
# Test system: marine bacteria (26 strains)
# Assay: Disk inhibition assay
# Type: cell-based, marine bacteria isolated from Singapore fouling communities
# Settings: for zone of inhibition at 2 µg/disc: 2 μg per disc; for zone of inhibition at 10 µg/disc: 10 μg per disc; for zone of inhibition at 5 µg/disc: 5 μg per disc; for zone of inhibition at 15 µg/disc: 15 μg per disc
# Procedure: Preparation of Drugs onto Disks for Assay
# The non-antibiotic pharmaceuticals of Table 1 were prepared in the following way. A tablet with a known amount of active ingredient (as stated in the product information) was ground in a mortar and pestle and suspended in sterile deionized water to a concentration of 2 mg ml^−1. These samples were sonicated for at least 1 min. […] The two halves of the capsule were separated and the powder released straight into a bottle and suitable amount of water added to make a concentration of 2 mg ml^−1.
# As a comparison to the pharmaceuticals, to determine the susceptibility of the bacterial isolates to conventional antibiotics, commercially available antibiotic discs were used. Antibiotic discs (Oxoid® CT series) containing Ampicillin [Amp] (2 and 10 μg), Erythromycin [Ery] (5 and 15 μg), Streptomycin [Str] (10 and 25 μg) and Tetracycline [Tet] (5 and 30 μg) were placed on lawns of the bacterial strains inoculated as described below.
# Sterile swabs dipped into the cultures were used to inoculate Marine Agar plates with a bacterial lawn by smearing the culture over the surface. After inoculating the plates, discs with antibiotics, pharmaceuticals or control blanks were placed on each plate. Each concentration of antibiotic or pharmaceutical was tested with three replicates on three separate occasions. After the disks were placed on the agar surface, plates were incubated overnight in the dark at 30° C. After incubation, plates were examined for zones of inhibition or clearing around control and treated disks. The diameter of any zone of clearing or inhibition was measured using Vernier calipers.
# The assay was repeated three times with three replicates for each concentration used, each time.
smiles,measurement,setting,value
"CC1(C)S[C@@H]2[C@H](NC(=O)[C@H](N)c3ccccc3)C(=O)N2[C@H]1C(=O)O [Amp, ampicillin]",zone of inhibition at 2 µg/disc,strain 1 (Rhodovulum),10 to 19 mm
same,zone of inhibition at 10 µg/disc,strain 1 (Rhodovulum),20 to 29 mm
same,zone of inhibition at 2 µg/disc,strain 2 (Erythrobacter),< 6 mm
same,zone of inhibition at 10 µg/disc,strain 2 (Erythrobacter),10 to 19 mm
same,zone of inhibition at 2 µg/disc,strain 3 (Erythrobacter),< 6 mm
same,zone of inhibition at 10 µg/disc,strain 3 (Erythrobacter),< 6 mm
same,zone of inhibition at 2 µg/disc,strain 4 (Bacillus),> 40 mm
same,zone of inhibition at 10 µg/disc,strain 4 (Bacillus),> 40 mm
same,zone of inhibition at 2 µg/disc,strain 6 (Vibrio),< 6 mm
same,zone of inhibition at 10 µg/disc,strain 6 (Vibrio),< 6 mm
same,zone of inhibition at 2 µg/disc,strain 7 (Vibrio),6 to 9 mm
same,zone of inhibition at 10 µg/disc,strain 7 (Vibrio),10 to 19 mm
same,zone of inhibition at 2 µg/disc,strain 8 (Bacillus),20 to 29 mm
same,zone of inhibition at 10 µg/disc,strain 8 (Bacillus),30 to 39 mm
same,zone of inhibition at 2 µg/disc,strain 9 (Bacillus),10 to 19 mm
same,zone of inhibition at 10 µg/disc,strain 9 (Bacillus),30 to 39 mm
same,zone of inhibition at 2 µg/disc,strain 10 (Halobacillus),30 to 39 mm
same,zone of inhibition at 10 µg/disc,strain 10 (Halobacillus),> 40 mm
same,zone of inhibition at 2 µg/disc,strain 11 (Pseudomonas),20 to 29 mm
same,zone of inhibition at 10 µg/disc,strain 11 (Pseudomonas),30 to 39 mm
same,zone of inhibition at 2 µg/disc,strain 12 (Gordonia),< 6 mm
same,zone of inhibition at 10 µg/disc,strain 12 (Gordonia),< 6 mm
same,zone of inhibition at 2 µg/disc,strain 13 (Bacillus),10 to 19 mm
same,zone of inhibition at 10 µg/disc,strain 13 (Bacillus),10 to 19 mm
same,zone of inhibition at 2 µg/disc,strain 14 (Vibrio),10 to 19 mm
same,zone of inhibition at 10 µg/disc,strain 14 (Vibrio),20 to 29 mm
same,zone of inhibition at 2 µg/disc,strain 16 (Pseudoalteromonas),6 to 9 mm
same,zone of inhibition at 10 µg/disc,strain 16 (Pseudoalteromonas),10 to 19 mm
same,zone of inhibition at 2 µg/disc,strain 17 (Gordonia),< 6 mm
same,zone of inhibition at 10 µg/disc,strain 17 (Gordonia),< 6 mm
same,zone of inhibition at 2 µg/disc,strain 18 (Microbacterium),20 to 29 mm
same,zone of inhibition at 10 µg/disc,strain 18 (Microbacterium),20 to 29 mm
same,zone of inhibition at 2 µg/disc,strain 19 (Erythrobacter),20 to 29 mm
same,zone of inhibition at 10 µg/disc,strain 19 (Erythrobacter),20 to 29 mm
same,zone of inhibition at 2 µg/disc,strain 20,< 6 mm
same,zone of inhibition at 10 µg/disc,strain 20,20 to 29 mm
same,zone of inhibition at 2 µg/disc,strain 21,< 6 mm
same,zone of inhibition at 10 µg/disc,strain 21,< 6 mm
same,zone of inhibition at 2 µg/disc,strain 22,10 to 19 mm
same,zone of inhibition at 10 µg/disc,strain 22,10 to 19 mm
same,zone of inhibition at 2 µg/disc,strain 24,30 to 39 mm
same,zone of inhibition at 10 µg/disc,strain 24,> 40 mm
same,zone of inhibition at 2 µg/disc,strain 26,10 to 19 mm
same,zone of inhibition at 10 µg/disc,strain 26,10 to 19 mm
same,zone of inhibition at 2 µg/disc,strain 27,20 to 29 mm
same,zone of inhibition at 10 µg/disc,strain 27,30 to 39 mm
same,zone of inhibition at 2 µg/disc,strain 28,6 to 9 mm
same,zone of inhibition at 10 µg/disc,strain 28,10 to 19 mm
same,zone of inhibition at 2 µg/disc,strain 29,30 to 39 mm
same,zone of inhibition at 10 µg/disc,strain 29,30 to 39 mm
same,zone of inhibition at 2 µg/disc,strain 30,30 to 39 mm
same,zone of inhibition at 10 µg/disc,strain 30,20 to 29 mm
"CC[C@H]1OC(=O)[C@H](C)[C@@H](O[C@H]2C[C@@](C)(OC)[C@@H](O)[C@H](C)O2)[C@H](C)[C@@H](O[C@@H]2O[C@H](C)C[C@H](N(C)C)[C@H]2O)[C@](C)(O)C[C@@H](C)C(=O)[C@H](C)[C@@H](O)[C@]1(C)O [Ery, erythromycin]",Effectiveness of antibiotics against strains of marine bacteria,"commercial antibiotic discs, in words",effective against most of the strains of marine bacteria
same,zone of inhibition at 5 µg/disc,strain 1 (Rhodovulum),< 6 mm
same,zone of inhibition at 15 µg/disc,strain 1 (Rhodovulum),< 6 mm
same,zone of inhibition at 5 µg/disc,strain 2 (Erythrobacter),< 6 mm
same,zone of inhibition at 15 µg/disc,strain 2 (Erythrobacter),20 to 29 mm
same,zone of inhibition at 5 µg/disc,strain 3 (Erythrobacter),10 to 19 mm
same,zone of inhibition at 15 µg/disc,strain 3 (Erythrobacter),20 to 29 mm
same,zone of inhibition at 5 µg/disc,strain 4 (Bacillus),> 40 mm
same,zone of inhibition at 15 µg/disc,strain 4 (Bacillus),30 to 39 mm
same,zone of inhibition at 5 µg/disc,strain 6 (Vibrio),< 6 mm
same,zone of inhibition at 15 µg/disc,strain 6 (Vibrio),10 to 19 mm
same,zone of inhibition at 5 µg/disc,strain 7 (Vibrio),10 to 19 mm
same,zone of inhibition at 15 µg/disc,strain 7 (Vibrio),10 to 19 mm
same,zone of inhibition at 5 µg/disc,strain 8 (Bacillus),20 to 29 mm
same,zone of inhibition at 15 µg/disc,strain 8 (Bacillus),30 to 39 mm
same,zone of inhibition at 5 µg/disc,strain 9 (Bacillus),30 to 39 mm
same,zone of inhibition at 15 µg/disc,strain 9 (Bacillus),30 to 39 mm
same,zone of inhibition at 5 µg/disc,strain 10 (Halobacillus),30 to 39 mm
same,zone of inhibition at 15 µg/disc,strain 10 (Halobacillus),> 40 mm
same,zone of inhibition at 5 µg/disc,strain 11 (Pseudomonas),20 to 29 mm
same,zone of inhibition at 15 µg/disc,strain 11 (Pseudomonas),20 to 29 mm
same,zone of inhibition at 5 µg/disc,strain 12 (Gordonia),< 6 mm
same,zone of inhibition at 15 µg/disc,strain 12 (Gordonia),10 to 19 mm
same,zone of inhibition at 5 µg/disc,strain 13 (Bacillus),20 to 29 mm
same,zone of inhibition at 15 µg/disc,strain 13 (Bacillus),20 to 29 mm
same,zone of inhibition at 5 µg/disc,strain 14 (Vibrio),< 6 mm
same,zone of inhibition at 15 µg/disc,strain 14 (Vibrio),10 to 19 mm
same,zone of inhibition at 5 µg/disc,strain 16 (Pseudoalteromonas),10 to 19 mm
same,zone of inhibition at 15 µg/disc,strain 16 (Pseudoalteromonas),6 to 9 mm
same,zone of inhibition at 5 µg/disc,strain 17 (Gordonia),> 40 mm
same,zone of inhibition at 15 µg/disc,strain 17 (Gordonia),> 40 mm
same,zone of inhibition at 5 µg/disc,strain 18 (Microbacterium),6 to 9 mm
same,zone of inhibition at 15 µg/disc,strain 18 (Microbacterium),10 to 19 mm
same,zone of inhibition at 5 µg/disc,strain 19 (Erythrobacter),20 to 29 mm
same,zone of inhibition at 15 µg/disc,strain 19 (Erythrobacter),20 to 29 mm
same,zone of inhibition at 5 µg/disc,strain 20,10 to 19 mm
same,zone of inhibition at 15 µg/disc,strain 20,20 to 29 mm
same,zone of inhibition at 5 µg/disc,strain 21,20 to 29 mm
same,zone of inhibition at 15 µg/disc,strain 21,20 to 29 mm
same,zone of inhibition at 5 µg/disc,strain 22,10 to 19 mm
same,zone of inhibition at 15 µg/disc,strain 22,30 to 39 mm
same,zone of inhibition at 5 µg/disc,strain 24,20 to 29 mm
same,zone of inhibition at 15 µg/disc,strain 24,20 to 29 mm
same,zone of inhibition at 5 µg/disc,strain 26,20 to 29 mm
same,zone of inhibition at 15 µg/disc,strain 26,20 to 29 mm
same,zone of inhibition at 5 µg/disc,strain 27,20 to 29 mm
same,zone of inhibition at 15 µg/disc,strain 27,20 to 29 mm
same,zone of inhibition at 5 µg/disc,strain 28,20 to 29 mm
same,zone of inhibition at 15 µg/disc,strain 28,20 to 29 mm
same,zone of inhibition at 5 µg/disc,strain 29,30 to 39 mm
same,zone of inhibition at 15 µg/disc,strain 29,20 to 29 mm
same,zone of inhibition at 5 µg/disc,strain 30,20 to 29 mm
same,zone of inhibition at 15 µg/disc,strain 30,20 to 29 mm
